“Also recorded” adds a separate entry of the source. Read-outs that look alike come from different tables or passages of the source. Each block holds one molecule with its values, some of them ahead of it.
Columns and labels:
[1] = tested on: rabbit gastric parietal cells; test: Basal acid secretion (aminopyrine uptake) in gastric parietal cells; assay type: cell-based; conditions: Oryctolagus cuniculus
Description: (§1) Briefly, the technique involves high-pressure perfusion of the stomach in live animal with oxygenated PBS, stripping and mincing the mucosa followed by 2-step proteolytic digestion at 37° C., first with a mixture of protease (0.1 mg/ml) and pronase (1 mg/ml) for 15 min and then the pellet obtained therefrom with collagenase (1 mg/ml) for 30 min. The washed cell pellet containing majority of the gastric cells was layered on top of a two-step gradient of Nycodenz (density 1.05 and 1.075 g/ml) and centrifuged at 150×g for 10 min. Parietal cells enriching in between density of 1.05 and 1.075 interface were collected, washed 3 times with respiratory medium and used for the study. The PC preparations were nearly 90% pure and viable.
(§2) The [^14C]-aminopyrine (115 μCi/mM) was added to the suspension at a concentration of 0.1 mCi/ml, and incubation was continued for another 10 min. One-milliliter aliquots of such PC suspension (˜5×10^6 cells) were further incubated in the presence and the absence of histamine (0.1 mM) for 20 min at 37° C. with slow shaking and oxygen top gassing. At the end of the incubation, the PC suspensions were centrifuged, supernatant carefully aspired off and the pellets solubilized in scintillation fluid containing Triton X-100. The resulting solution was counted in a liquid scintillation counter. The aminopyrine accumulation was determined as the ratio of intra- to extracellular aminopyrine according to Mazzeo et al. (A R Mazzeo, J Nandi & R A Levine, Am. J. Physiol. 1988, 254, G57).

[2] = tested on: cold restraint stress ulcer in rats; test: Cold restraint stress induced ulceration; assay type: in vivo, rat; conditions: for protection of ulceration induced by cold restraint stress: 50 mg/kg body weight
Description: Adult rats of either sex, weighing about 200 g were fasted for 24 h with free access to water. Compound 4 (in 0.4% hydroxypropylmethylcellulose, HPMC) were administered 45 min before immobilizing the animals. The rats were immobilized in the restraint cage at 4 °C for 4 h and were sacrificed immediately after the restraint period according to the method of Senay and Levine (E C Senay & R J Levine, Proc. Soc. Exp. Biol. Med. 1967, 124, 1221). The abdomen was cut opened, stomach taken out and incised along the greater curvature to observe the gastric lesions. The ulceration was rated and the ulcer index (UI) scored as described in Wagner et al. (K Wagner, J Nandi, R L King & R A Levine, Dig. Dis. Sci. 1995, 40, 134), the effect of compound 4 being expressed graphically as a function of ulcer index and the result was further expressed as the percent protection of the ulcer formation in comparison to the untreated control group (FIG. 4).

pylorus-ligated rats = test: Gastric secretion in pylorus-ligated rats; assay type: in vivo, rat
Description: The pylorus of each rat was ligated under anesthesia according to the method of Shay et. al. (H Shay, S A Komarov, S S Fels, D Merange, M Grunstein & H Siplet, Gastroenterol. 1945, 4, 43). Each of the animals were then allowed to stand abstained from food and water in a cage. After 4 h, the animals were sacrificed and the stomachs were removed. The gastric contents were collected and centrifuged, and the secretory volume, pH and acid content of the supernatants were measured. The acid content was measured by titrating to pH 7.0 with 0.01 N NaOH using an autotitrator (Metrohm). The total acid content of the drug treated groups was compared to that of control groups, presented graphically in FIG. 5 and thereby, the reduction percentage of acid content was calculated. Compound 4 was suspended in 0.4% HPMC and administered orally at graded dose (10, 20, 50 and 100 mg/kg dose) in different groups 45 min before the ligation. In the control group, the vehicle (0.4% HPMC) was administered.

Swiss albino mice = test: Single-dose acute toxicity evaluation; assay type: in vivo; conditions: 1 g/kg body weight orally, 15 days observation
Text: The Compound 4 was checked for mortality of the Swiss albino mice. Five animals of Swiss albino mice strain were used for this purpose. The dosage up to 1 g/kg body weight was given orally per mice and the animals kept up to 15 days under observation. It was observed that the mice were not affected at the dose level of 1 g/kg body weight of Compound 4.

[3] = tested on: indomethacin-induced ulcer in rat; test: Indomethacin-induced ulcer in rat; assay type: in vivo; conditions: for protection of indomethacin induced ulcer formation: p.o. 45 min before indomethacin 15 mg/kg p.o.
Description: The animals were kept fasting for 24 h before initiating the experiment, drinking water being available ad libitum. The animals were allotted to three groups, each group comprising of six rats. […] Six hours following the administration of indomethacin, the animals were killed, stomachs removed and opened along the greater curvature.

[4] = tested on: rabbit gastric parietal cells; test: Histamine-stimulated acid secretion (aminopyrine uptake) in gastric parietal cells; assay type: cell-based; conditions: histamine 0.1 mM
Description: as §1, §2

H^+,K^+-ATPase = H^+,K^+-ATPase (Sus scrofa, UniProt P19156); test: H+,K+-ATPase (gastric proton pump) inhibition in pig gastric membranes; assay type: biochemical; conditions: for IC50: read-out: calculated IC50, H^+,K^+-ATPase
H^+,K^+-ATPase, sequence (P19156 whole entry): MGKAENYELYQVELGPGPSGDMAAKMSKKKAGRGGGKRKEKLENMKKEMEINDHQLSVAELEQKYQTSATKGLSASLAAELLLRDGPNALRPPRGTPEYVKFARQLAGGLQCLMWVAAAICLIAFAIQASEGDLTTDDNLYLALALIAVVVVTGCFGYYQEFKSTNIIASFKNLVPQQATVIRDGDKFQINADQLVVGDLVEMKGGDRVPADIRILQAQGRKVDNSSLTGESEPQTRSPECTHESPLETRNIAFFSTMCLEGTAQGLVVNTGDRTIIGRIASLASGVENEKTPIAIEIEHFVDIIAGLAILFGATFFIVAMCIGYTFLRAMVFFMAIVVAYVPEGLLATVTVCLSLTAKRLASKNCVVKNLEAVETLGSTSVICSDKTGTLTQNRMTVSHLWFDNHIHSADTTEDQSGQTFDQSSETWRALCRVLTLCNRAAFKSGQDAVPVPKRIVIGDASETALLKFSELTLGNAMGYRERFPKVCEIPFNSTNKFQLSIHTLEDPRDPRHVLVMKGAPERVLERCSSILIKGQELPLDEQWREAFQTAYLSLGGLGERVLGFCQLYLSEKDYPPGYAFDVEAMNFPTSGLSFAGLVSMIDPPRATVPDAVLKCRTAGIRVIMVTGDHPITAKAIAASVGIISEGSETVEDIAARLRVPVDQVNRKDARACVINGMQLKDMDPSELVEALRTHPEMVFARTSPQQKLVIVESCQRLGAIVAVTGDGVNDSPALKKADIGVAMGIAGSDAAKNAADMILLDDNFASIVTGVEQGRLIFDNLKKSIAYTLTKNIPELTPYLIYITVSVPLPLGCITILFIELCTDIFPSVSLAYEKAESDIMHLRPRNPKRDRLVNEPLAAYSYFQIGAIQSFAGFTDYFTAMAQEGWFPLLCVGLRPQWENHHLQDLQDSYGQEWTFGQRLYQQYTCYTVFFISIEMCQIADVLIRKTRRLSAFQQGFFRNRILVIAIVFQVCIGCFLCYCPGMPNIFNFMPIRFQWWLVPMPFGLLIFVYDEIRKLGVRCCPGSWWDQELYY
H^+,K^+-ATPase, sequence (P18434 whole entry partner): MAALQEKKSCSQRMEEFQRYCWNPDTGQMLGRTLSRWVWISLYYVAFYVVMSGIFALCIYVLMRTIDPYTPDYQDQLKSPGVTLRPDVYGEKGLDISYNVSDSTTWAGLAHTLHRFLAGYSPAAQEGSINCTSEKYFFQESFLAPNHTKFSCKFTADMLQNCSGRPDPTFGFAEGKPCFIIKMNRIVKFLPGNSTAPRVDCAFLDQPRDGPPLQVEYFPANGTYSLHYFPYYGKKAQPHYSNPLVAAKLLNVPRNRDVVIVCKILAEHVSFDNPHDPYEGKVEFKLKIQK
Description: Pig gastric membranes enriched in apical and tubulovesicular membranes were prepared as described in the literature (S Bandopadhyay, P K Das, M V Wright, J Nandi, D Bhattacharya & T K Ray, J. Biol. Chem. 1987, 262, 5664). The fundic mucosal regions of pig stomach were desquamated and scrapped to collect oxyntic cell-riched fractions. The homogenized tissue was centrifuged at 5000×g for 8 min, the supernatant was layered over 37% sucrose and centrifuged at 100,000×g for 4½ h. The major membrane band appeared in the interface was collected, diluted with homogenizing buffer and recentrifuged at 110,000×g for 90 min. The pellet containing H^+,K^+-ATPase rich apical and tubulovesicular membranes was suspended in appropriate buffer and stored at −80° C. for use as the source of enzyme.
The H^+,K^+-ATPase activity was measured at 37° C. in a 1 ml reaction mixture containing 2 mM MgCl2, 2 mM ATP, 10 mM PIPES (pH 6.8), 20 mM KCl and 10-15 μg membrane protein. […] After incubation for 10 min, the reaction was terminated by addition of 1 ml ice-chilled TCA (14%).
K^+-stimulated activity, referred to as H^+,K^+-ATPase, was calculated as the difference between the activity in presence of Mg^+2 plus K^+ and basal activity (Mg^+-ATPase) in presence of Mg^+2 alone. […] The liberated inorganic phosphate was quantitated according to a reported procedure (H Sanui, Anal. Biochem. 1974, 60, 489) and the effects of 4 and 5 were assessed. The effects are quantitated in terms of percent inhibition of H^+,K^+-ATPase activity, and compared with that of omeprazole.

Compound: CN/C(=N/CCSCc1nc[nH]c1C)NC#N [Cimetidine, reference compound]
- inhibition at 200 µM ([1]; 200 μM): ~10%
- protection of ulceration induced by cold restraint stress [2]: 86%
- inhibition of acid output (pylorus-ligated rats; 50 mg/kg): ~80%

Compound: CC(=O)NC1=C(C=O)CC2C3CC=C4CC(OC(C)=O)CCC4(C)C3CCC12C (stereo not shown) [Compound 4, 3-acetoxy-17-acetamido-16-formyl-androst-5,17-diene]
- inhibition at 300 µM ([1]; 300 μM (highest concentration)): ~10%
- mortality and behavioral abnormality, single-dose acute toxicity (Swiss albino mice): No mortality and behavioral abnormality; also recorded: did not show acute toxicity
- anti ulcer activity in indomethacin-induced ulcer model (in words) ([3]; 10-50 mg/kg b.w.): potent anti ulcer activity
- protection of indomethacin induced ulcer formation [3]: ~75%
- IC50 ([4]; Oryctolagus cuniculus, read-out: IC50, inhibition of histamine-stimulated acid secretion): ~130 µM
- activity compared with cimetidine in inhibiting histamine-stimulated secretion [4]: IC50 value comparable to cimetidine; also recorded: almost equiactive as compared with cimetidine
- protection of ulceration induced by cold restraint stress [2]: 54%
- antiulcer activity in cold restraint stress ulcer model (in words) ([2]; 50 mg/kg body wt.): potent antiulcer activity
- inhibition of H^+,K^+-ATPase (in words) (H^+,K^+-ATPase): dose dependent
- nature of inhibition of H^+,K^+-ATPase (H^+,K^+-ATPase): irreversible
- Observation (nature of inhibition) (H^+,K^+-ATPase; 10 μM, different protein to inhibitor ratio): Irreversible
- Observation (nature of inhibition) (H^+,K^+-ATPase; 10 μM, function of preincubation time): Irreversible
- inhibition at 10 µM (H^+,K^+-ATPase; 10 μM, preincubation time 0 min, read-out: % Inhibition of H^+, K^+-ATPase): 2%
- inhibition at 10 µM (H^+,K^+-ATPase; 10 μM, preincubation time 30 min, read-out: % Inhibition of H^+, K^+-ATPase): 56%
- inhibition at 10 µM (H^+,K^+-ATPase; 10 μM, protein concentration 5 μg/assay, read-out: % Inhibition of H^+, K^+-ATPase): 75%
- inhibition at 10 µM (H^+,K^+-ATPase; 10 μM, protein concentration 20 μg/assay, read-out: % Inhibition of H^+, K^+-ATPase): 57%
- inhibition at 1 µM (H^+,K^+-ATPase; concentration 1 μM): 7%
- inhibition at 5 µM (H^+,K^+-ATPase; concentration 5 μM): 20%
- inhibition at 10 µM (H^+,K^+-ATPase; concentration 10 μM, read-out: % Inhibition H^+, K^+-ATPase): 47%
- inhibition at 100 µM (H^+,K^+-ATPase; concentration 100 μM): 75%
- IC50 (H^+,K^+-ATPase): 18 µM
- inhibition of acid output (pylorus-ligated rats; 50 mg/kg): ~33%
- inhibition of acid output (pylorus-ligated rats; 50-100 mg/kg, oral): ~30%

Compound: CC(=O)O[C@H]1CC[C@@]2(C)C(=CC[C@@H]3[C@@H]2CC[C@]2(C)c4nc(Cl)ccc4C[C@@H]32)C1 [Compound 5, 3-acetoxy-2′-chloro-5-androsteno[17,16-b]pyridine]
- inhibition of H^+,K^+-ATPase (in words) (H^+,K^+-ATPase): nominal
- % Inhibition H^+, K^+-ATPase (H^+,K^+-ATPase; concentration 1 μM): 2%
- % Inhibition H^+, K^+-ATPase (H^+,K^+-ATPase; concentration 10 μM): 37%
- % Inhibition H^+, K^+-ATPase (H^+,K^+-ATPase; concentration 100 μM): 57%

- inhibition at 3 µM (H^+,K^+-ATPase; concentration 3 μM): 20%
- inhibition at 30 µM (H^+,K^+-ATPase; concentration 30 μM): 80%
- inhibition of H^+,K^+-ATPase (H^+,K^+-ATPase; concentration range 3 μM and 30 μM): 20-80%
- potency relative to 4 (H^+,K^+-ATPase) (H^+,K^+-ATPase; from IC50 values): about three times more potent than 4
- IC50 (H^+,K^+-ATPase): ~6 µM
Compound: COc1ccc2[nH]c([S+]([O-])Cc3ncc(C)c(OC)c3C)nc2c1 (stereo not shown) [Omeprazole, 5-methoxy-2-[(4-methoxy-3,5-dimethyl-2-pyridinyl)-methyl]sulfinyl-1H-benzimidazole, reference compound]
- inhibition at 20 µM ([1]; 20 μM): 80 to 90%
- protection of indomethacin induced ulcer formation [3]: ~90%

Source: patent publication US8513226B2, “Simultaneous method for the preparation of a mixture of 3-acetoxy-17-acetamido-16-formyl-androst-5,17-diene and 3-acetoxy-2'-chloro-5-androsteno[17,16-b]pyridine” (Council of Scientific and Industrial Research, priority 2008, dated 2013)
